The record followed here is patent publication US11806441B2, “Viscoelastic hydrogels with fast stress relaxation” (President and Fellows of Harvard College, priority 2014, dated 2023).

The test system of this test is U2OS cells. The test can be described thus: U2OS cells plated on 2D alginate substrates: spreading, YAP localization, proliferation. The class given is cell-based, human. Conditions: 10 μM, initial Young's modulus 1.4 kPa, RGD 1500. The procedure: Plating of cells on gels. 1 mm thick alginate hydrogels were prepared as previously described (Zhao et al. J. Appl. Phys. 107, 63509 (2010); and Huebsch et al. Nat Mater 9, 518-526 (2010)). Following gelation, 15 mm disks were punched out, and these disks were washed thoroughly 4 times over 2 days in serum free media to remove any excess calcium. […] Cells were allowed to spread for 20 hours, and then were fixed and stained for analysis. Only isolated cells, without any cell-cell contacts, were analyzed. Immunohistochemistry. For immunohistochemical staining, media was first removed from the gels. The gels were then fixed with 4% paraformaldehyde in serum free DMEM at 37° C. for 30-45 minutes. Gels were then washed 3 times in PBS containing calcium (cPBS). Gels from 3D studies were then incubated overnight in 30% sucrose in cPBS at 4° C. […] Images of all single cells were then thresholded manually based on the actin stain, and the area of the thresholded cell body was determined using a custom macro in ImageJ (NIH). […] The YAP nuclear localization ratio was then determined as the summed intensity of the YAP signal within the nucleus normalized by the nuclear area divided by the summed intensity of the YAP signal outside of the nucleus normalized by the non-nuclear cytoskeleton area.

Regarding `C[C@@H](N)[C@H]1CC[C@H](C(=O)Nc2ccncc2)CC1` [Y-27632], the “effect on increased cell spreading on stress relaxing substrate” value is “abrogated the increased cell spreading”.
